Measured values taken from patent US4965351A, “4-demethoxy-4-amino-anthracyclines” (Farmitalia Carlo Erba S.R.L., priority 1987, dated 1990).
Converted amounts (≈) assume the structure as drawn. Like-named read-outs stand apart in the source and are kept apart here.

Columns and labels:
[1] = test system: human colon adenocarcinoma cells sensitive (LoVo) to doxorubicin; assay: Colony inhibition test after 4 h treatment, LoVo (in vitro cytotoxicity); type: cell-based; settings: read-out: LoVo ID50
Method: (§1) The glycosides are antitumor agents. The activity of a representative compound of formula (I), 4-demethoxy-4-amino-daunorubicin (Ia), has been assessed by comparing its in vitro cytotoxicity against that of daunorubicin (DNR) in human colon adenocarcinoma cells sensitive (LoVo) or resistant (LoVo/DX) to doxorubicin.
(§2) Colony inhibition test after 4 h. treatment.

[2] = test system: disseminated Gross leukaemia; assay: In vivo activity against disseminated Gross leukaemia in mice, treatment i.v. on day 1 after tumor inoculum
Excerpt: The in vivo activities of (Ia) and DNR against disseminated Gross leukaemia in mice also determined.
Treatment i.v on day 1 after tumor inoculum
TOX represents toxic death

[3] = test system: human colon adenocarcinoma cells resistant (LoVo/DX) to doxorubicin; assay: Colony inhibition test after 4 h treatment, LoVo/DX (in vitro cytotoxicity); type: cell-based; settings: read-out: LoVo/DX ID50
Method: as §1, §2

Compound	IC50 ([1]; LoVo cells (doxorubicin-sensitive), 4 h treatment, colony inhibition)	T/C % ([2]; 1.6 mg/Kg i.v. on day 1)	TOX (toxic death) ([2]; 1.6 mg/Kg i.v. on day 1)	T/C % ([2]; 1.9 mg/Kg i.v. on day 1)	TOX (toxic death) ([2]; 1.9 mg/Kg i.v. on day 1)	T/C % ([2]; 2.29 mg/Kg i.v. on day 1)	TOX (toxic death) ([2]; 2.29 mg/Kg i.v. on day 1)	IC50 [3]	IC50 ([1]; LoVo, 4 h)	T/C % ([2]; 10 mg/Kg i.v. on day 1)	TOX (toxic death) ([2]; 10 mg/Kg i.v. on day 1)	T/C % ([2]; 15 mg/Kg i.v. on day 1)	TOX (toxic death) ([2]; 15 mg/Kg i.v. on day 1)	T/C % ([2]; 22.5 mg/Kg i.v. on day 1)	TOX (toxic death) ([2]; 22.5 mg/Kg i.v. on day 1)
CC(=O)[C@]1(O)Cc2c(O)c3c(c(O)c2[C@@H](O[C@H]2C[C@H](N)[C@H](O)[C@H](C)O2)C1)C(=O)c1c(N)cccc1C3=O [Ia, 4-demethoxy-4-amino-daunorubicin]	0.7 µg/mL (≈ 1.37 µM)	183%	0/10	192%	0/10	200%	1/10	99 µg/mL (≈ 193 µM)							
COc1cccc2c1C(=O)c1c(O)c3c(c(O)c1C2=O)C[C@@](O)(C(C)=O)C[C@@H]3O[C@H]1C[C@H](N)[C@H](O)[C@H](C)O1 [DNR, daunorubicin]								1800 µg/mL (≈ 3420 µM)	50.3 µg/mL (≈ 95.4 µM)	133%	0/10	167%	0/10	200%	1/10
